Results: US5691365A, “Nicotinic receptor antagonists in the treatment of neuropharmacological disorders” (University of Kentucky Research Foundation, priority 1995, dated 1997)
Where “and” joins values, the source holds several entries; their conditions need not be identical. Equal values may be shown once. Entries after “also recorded” stand apart in the source; their conditions may differ.

Columns and labels:
[1] = test system: S(-)nicotine (10 μM)-evoked [^3 H]DA release from rat striatal slices; format: cell-based
Experimental: (§1) Biological Methods. Male Spragua-Dawley rats (150-200 g) were obtained from Harlan Laboratories (Indianapolis, Ind.) and were housed two per cage with free access to food and water in the Division of Lab Animal Resources at the College of Pharmacy at the University of Kentucky. Experimental protocols involving the animals were approved by the Institutional Animal Care and Use Committee at the University of Kentucky.
(§2) [^3 H]DA Release Assay. Rat striatal slices (500 μm thickness, 6-8 mg wet weight) were obtained as previously described (Dwoskin and Zahniser, 1986). Slices were incubated for 30 min in Krebs' buffer ([…]; 118 NaCl, 4.7 KCl, 1.2 MgCl2, 1.0 NaH2 PO4, 1.3 CaCl2, […], 11.1 glucose, 25 NaHCO3, 0.11 L-ascorbic acid nd 0.004 disodium EDTA; pH 7.4 and saturated with 95% O2 /5% CO2) in a metabolic shaker at 34°. Slices were rinsed with 15 ml of fresh buffer and incubated for an additional 30 min in fresh buffer containing 0.1 μM [^3 H]dopamine (6 slices/3 ml). Subsequently, slices were rinsed with 15 ml of fresh buffer and transferred to a glass superfusion chamber. Slices were superfused (1.0 ml/min) for 60 min with Krebs' buffer containing nomifensine (10 μm) and pargyline (10 μm) and maintained at 34° C., pH 7.4 with continual aeration (95% O2 /5% CO2). Two 5-min samples (5 ml) were collected to determine basal outflow of [^3 H]DA. N-Substituted nicotine analogues were added to the superfusion buffer after the collection of the second sample and remained in the buffer until 12 consecutive 5-min samples were collected. […] At the end of the experiment each slice was solubilized and the [^3 H] content of the tissue determined.
(§3) Radioactivity in the superfusate and tissue samples was determined by liquid scintillation spectroscopy. Fractional release for each superfusate sample was calculated by dividing the total tritium collected in each sample by the total tritium present in the tissue at the time of sample collection. Basal [^3 H]out flow was calculated from the average of the tritium collected in the two 5-min samples just before addition of the N-substituted nicotine analogue. The sums of the increase in collected tritium resulting from either exposure to the test compound or exposure to nicotine in the absence and presence of the test compound equaled total [^3 H]overflow. [^3 H]overflow was calculated by subtracting the [^3 H]outflow during an equivalent period of prestimulation from the values in samples collected during and after drug exposure. Inasmuch as the radiolabelled compounds were not separated and identified, the tritium collected in superfusate is referred to as either [^3 H]outflow or [^3 H]overflow, rather than as [^3 H]DA. [^3 H]Overflow primarily represents [^3 H]DA in the presence of nomifensine and pargyline in the superfusion buffer (Zumstein et al. 1981).
In these experiments, the striatal slices were superfused for 60 min with various concentrations of the analogues prior to nicotine (10 μM) exposure. Antagonist activity was evaluated by comparing the nicotine-evoked [^3 H]overflow in the absence and presence of the analogues. […] The relative order of potency of the classical and pyridine-N substituted nicotine analogues for inhibition of nicotine-evoked [^3 H]DA release from rat striatal slices is illustrated in FIG. 2 by a comparison of their IC50 values.
FIG. 2. IC50 values for N-substituted analogues of nicotine, nornicotine, and cotinine to inhibit nicotine-evoked [^3 H]DA release from rat striatal slices. Inhibition produced by the classical nicotinic inhibitors, mecamylamine (MEC) and DHBE was also determined. Slices were superfused with inhibitor for 60 min […] co-superfusion with 10 μM nicotine. Inhibition was determined by comparing [^3 H]DA release in the absence and presence of various concentrations of inhibitor. IC50 values were determined using the Logit-log plot (pseudo-Hill plot). […] IC50 for each animal was determined as the intercept of the linear regression.

[2] = test system: [^3 H]DA release from rat striatal slices; test: [3H]DA release assay: compound-evoked (intrinsic agonist) release; format: cell-based; set-up: key to total [3H]overflow (effect on [3H]DA release): summed increase in fractional release (sample tritium / tissue tritium); conditions: for total [3H]overflow (effect on [3H]DA release): mean ± S.E.M.; for total [3H]overflow (effect on [3H]DA release) / effect on [3H]DA release / intrinsic agonist activity (in words): rat striatal slices
Experimental: as §1, §2, §3

[3] = Rattus norvegicus, read-out: evoked [3H]DA release relative to S(-)nicotine

CCC[n+]1cccc([C@@H]2CCCN2C)c1 [NPNI, S-N-propyl nicotinium iodide]
nicotinic antagonist activity / inhibition of nicotine-evoked [3H]DA release (in words) [1]: Significant antagonist activity; also recorded: significantly lower potency and efficacy; also recorded: preferred nicotinic receptor antagonist activity | relative order of potency for inhibition of nicotine-evoked [3H]DA release (comparison of IC50 values) [1]: NBNB=NPNI=NnNBI=NANI>NHENI | total [3H]overflow (effect on [3H]DA release) ([2]; Table 3, 1 μM): 0.06 ± 0.01 | total [3H]overflow (effect on [3H]DA release) ([2]; Table 3, 10 μM): 0.03 ± 0.03 | total [3H]overflow (effect on [3H]DA release) ([2]; Table 3, 100 μM): 0.03 ± 0.03

C=CCN1CCCC1c1ccc[n+](CC=C)c1 (racemic) [(±)DNANI, (±)di-N-allyl nicotinium iodide]
nicotinic antagonist activity / inhibition of nicotine-evoked [3H]DA release (in words) [1]: did not exhibit significant nicotinic antagonist activity over the concentration range tested; also recorded: relatively weak antagonist activity compared to the N-allyl nicotine analogue (NANI) | relative order of potency for inhibition of nicotine-evoked [3H]DA release (comparison of IC50 values) [1]: (±)di-N-allyl nicotinium iodide (DNANI)=(±)N-methyl nornicotinium iodide (NMNNI)=NMNI | total [3H]overflow during cosuperfusion with 10 μM nicotine [1]: 2.58 ± 0.54 and 1.85 ± 0.25 and 1.66 ± 0.36 | total [3H]overflow (effect on [3H]DA release) ([2]; Table 3, 1 μM): 0.02 ± 0.01 | total [3H]overflow (effect on [3H]DA release) ([2]; Table 3, 10 μM): 0.08 ± 0.04 | total [3H]overflow (effect on [3H]DA release) ([2]; Table 3, 100 μM): 0.00 ± 0.00

CN1C(=O)CC[C@H]1c1ccc[n+](C)c1 [NMCI, S-N-methylcotininium iodide]
nicotinic antagonist activity / inhibition of nicotine-evoked [3H]DA release (in words) [1]: did not exhibit significant nicotinic antagonist activity over the concentration range tested; also recorded: devoid of antagonist activity | relative order of potency for inhibition of nicotine-evoked [3H]DA release (comparison of IC50 values) [1]: NMNI=S-N-methylcotininium iodide (NMCI)=S-N'-methyl nicotinium iodide (PIPNMN) | total [3H]overflow during cosuperfusion with 10 μM nicotine [1]: 3.11 ± 1.32 and 3.11 ± 1.20 and 3.75 ± 1.66 | total [3H]overflow (effect on [3H]DA release) ([2]; Table 3, 1 μM): 0.00 ± 0.00 | total [3H]overflow (effect on [3H]DA release) ([2]; Table 3, 10 μM): 0.01 ± 0.01 | total [3H]overflow (effect on [3H]DA release) ([2]; Table 3, 100 μM): 0.02 ± 0.01

c1cncc([C@@H]2CCCN2)c1 (racemic) [(±)nornicotine, racemic nornicotine, reference compound]
Emax [2, 3]: ~80% | Emax at 1 µM [2, 3]: 50% | total [3H]overflow (effect on [3H]DA release) ([2]; Table 2, 1 μM): 1.40 ± 0.24 | total [3H]overflow (effect on [3H]DA release) ([2]; Table 2, 10 μM): 2.60 ± 0.38 | total [3H]overflow (effect on [3H]DA release) ([2]; Table 2, 100 μM): 4.20 ± 0.34 | effect on [3H]DA release / intrinsic agonist activity (in words) ([2]; 1-100 μM as stated, listed as Racemic nornicotine): concentration-dependent increase in [^3 H]DA release | effect on [3H]DA release / intrinsic agonist activity (in words) ([2]; 1-100 μM as stated, listed as nornicotine): less potent in producing this effect

CN1CCC[C@H]1c1ccc[n+](CCO)c1 [NHENI, S-N-hydroxyethyl nicotinium iodide]
nicotinic antagonist activity / inhibition of nicotine-evoked [3H]DA release (in words) [1]: Significant antagonist activity; also recorded: preferred nicotinic receptor antagonist activity | relative order of potency for inhibition of nicotine-evoked [3H]DA release (comparison of IC50 values) [1]: NHENI>>>(±)di-N-allyl nicotinium iodide (DNANI) | total [3H]overflow (effect on [3H]DA release) ([2]; Table 3, 1 μM): 0.00 ± 0.00 | total [3H]overflow (effect on [3H]DA release) ([2]; Table 3, 10 μM): 0.00 ± 0.00 | total [3H]overflow (effect on [3H]DA release) ([2]; Table 3, 100 μM): 0.08 ± 0.04

C[n+]1cccc(C2CCCN2)c1 (racemic) [(±)NMNNI, (±)N-methyl nornicotinium iodide]
nicotinic antagonist activity / inhibition of nicotine-evoked [3H]DA release (in words) [1]: did not exhibit significant nicotinic antagonist activity over the concentration range tested | relative order of potency for inhibition of nicotine-evoked [3H]DA release (comparison of IC50 values) [1]: (±)di-N-allyl nicotinium iodide (DNANI)=(±)N-methyl nornicotinium iodide (NMNNI)=NMNI | total [3H]overflow during cosuperfusion with 10 μM nicotine [1]: 2.22 ± 1.26 and 3.53 ± 0.85 | total [3H]overflow (effect on [3H]DA release) ([2]; Table 3, 1 μM): 0.17 ± 0.11 | total [3H]overflow (effect on [3H]DA release) ([2]; Table 3, 10 μM): 0.01 ± 0.01 | total [3H]overflow (effect on [3H]DA release) ([2]; Table 3, 100 μM): 2.60 ± 0.38 | effect on [3H]DA release / intrinsic agonist activity (in words) ([2]; 1-100 μM): evoked [^3 H]DA release and thus, possess intrinsic agonist activity at this concentration

CN1CCC[C@H]1c1ccc[n+](C)c1 [NMNI]
nicotinic antagonist activity / inhibition of nicotine-evoked [3H]DA release (in words) [1]: did not exhibit significant nicotinic antagonist activity over the concentration range tested; also recorded: no antagonistic activity; also recorded: devoid of antagonist activity | relative order of potency for inhibition of nicotine-evoked [3H]DA release (comparison of IC50 values) [1]: NMNI=S-N-methylcotininium iodide (NMCI)=S-N'-methyl nicotinium iodide (PIPNMN) | total [3H]overflow (effect on [3H]DA release) ([2]; Table 3, 1 μM): 0.13 ± 0.11 | total [3H]overflow (effect on [3H]DA release) ([2]; Table 3, 10 μM): 0.17 ± 0.10 | total [3H]overflow (effect on [3H]DA release) ([2]; Table 3, 100 μM): 0.08 ± 0.06

C[N+]1(C)CCC[C@H]1c1cccnc1 [PIPNMN, S-N'-methyl nicotinium iodide]
nicotinic antagonist activity / inhibition of nicotine-evoked [3H]DA release (in words) [1]: did not exhibit significant nicotinic antagonist activity over the concentration range tested | relative order of potency for inhibition of nicotine-evoked [3H]DA release (comparison of IC50 values) [1]: NMNI=S-N-methylcotininium iodide (NMCI)=S-N'-methyl nicotinium iodide (PIPNMN) | total [3H]overflow during cosuperfusion with 10 μM nicotine [1]: 3.16 ± 1.46 and 2.98 ± 1.48 and 1.88 ± 0.77 | total [3H]overflow (effect on [3H]DA release) ([2]; Table 3, 1 μM): 0.03 ± 0.03 | total [3H]overflow (effect on [3H]DA release) ([2]; Table 3, 10 μM): 0.01 ± 0.01 | total [3H]overflow (effect on [3H]DA release) ([2]; Table 3, 100 μM): 0.05 ± 0.02

CN1C(=O)CC[C@H]1c1cccnc1 [S(-)cotinine, reference compound]
Emax [2, 3]: 35% | total [3H]overflow (effect on [3H]DA release) ([2]; Table 2, 1 μM): 0 ± 0 | total [3H]overflow (effect on [3H]DA release) ([2]; Table 2, 10 μM): 1.14 ± 0.36 | total [3H]overflow (effect on [3H]DA release) ([2]; Table 2, 100 μM): 2.06 ± 0.35 | effect on [3H]DA release / intrinsic agonist activity (in words) ([2]; 1-100 μM as stated, listed as Cotinine): no effect at 1 μM | effect on [3H]DA release / intrinsic agonist activity (in words) ([2]; 1-100 μM as stated, listed as S(-)Cotinine): little effect even at high concentrations in the DA release assay

CCCCCCCC[n+]1cccc([C@@H]2CCCN2C)c1 [NONI, S-N-octylnicotinium iodide]
nicotinic antagonist activity / inhibition of nicotine-evoked [3H]DA release (in words) [1]: Significant antagonist activity; also recorded: completely inhibited nicotine-evoked [^3 H]DA release; also recorded: Greatest antagonist potency; also recorded: preferred nicotinic receptor antagonist activity; also recorded: most efficacious and potent compound in the series; also recorded: completely blocked the effect of nicotine to evoke [^3 H]DA release | potency relative to mecamylamine and dihydro-β-erythroidine [1]: approximately half that of the classical nicotinic antagonists | relative order of potency for inhibition of nicotine-evoked [3H]DA release (comparison of IC50 values) [1]: NONI>>DHBE=MEC | concentration for intrinsic agonist activity relative to that required to completely inhibit nicotine-evoked [3H]DA release ([1]; fold higher): 10 fold | agonist activity relative to nicotine [2]: three-times the agonist activity of nicotine | total [3H]overflow (effect on [3H]DA release) ([2]; Table 3, 1 μM): 0.03 ± 0.02 | total [3H]overflow (effect on [3H]DA release) ([2]; Table 3, 10 μM): 0.14 ± 0.14 | total [3H]overflow (effect on [3H]DA release) ([2]; Table 3, 100 μM): 16.4 ± 2.00 | effect on [3H]DA release / intrinsic agonist activity (in words) ([2]; 1-100 μM): possessed intrinsic agonist activity at this high concentration; also recorded: did not possess agonist activity at concentrations which completely blocked nicotine-evoked [^3 H]DA release | effect on [3H]DA release / intrinsic agonist activity (in words) ([2]; 1-100 μM, listed as HONI): evoked [^3 H]DA release and thus, possess intrinsic agonist activity at this concentration

CNC1(C)C2CCC(C2)C1(C)C (stereo not drawn) [MEC, mecamylamine, reference compound]
nicotinic antagonist activity / inhibition of nicotine-evoked [3H]DA release (in words) [1]: inhibited but did not completely block nicotine's effect | relative order of potency for inhibition of nicotine-evoked [3H]DA release (comparison of IC50 values) [1]: DHBE=MEC>>NBNB | total [3H]overflow (effect on [3H]DA release) ([2]; Table 3, 1 μM): 0.00 ± 0.00 | total [3H]overflow (effect on [3H]DA release) ([2]; Table 3, 10 μM): 0.00 ± 0.00 | total [3H]overflow (effect on [3H]DA release) ([2]; Table 3, 100 μM): 0.00 ± 0.00 | effect on [3H]DA release / intrinsic agonist activity (in words) ([2]; 1-100 μM): None of the compounds examined, including DHBE and mecamylmine, had any significant effect on [^3 H]DA release in the concentration range of 1-10 μM
